How the values were obtained:
BAEC cells = experiment: Ad(I)-F512-TK lytic effect in monolayer with GCV prodrug; assay type: cell-based, Bovine
Experimental: (§1) According to the present inventors' hypothesis, normal cells have more resistance to viral replication. In this case, adding a toxic gene would allow for the enhancement of the lytic capability in a specific manner in those cells wherein the SPARC promoter was active. Thus, in vitro assays with Ad(I)-F512-TK were carried out, in which the cells were also treated by adding ganciclovir (GCV) prodrug. […] Other analyzed endothelial cells were those of bovine aorta (BAEC, kindly provided by Helene Sage, Seattle, USA).

hMEC-1 cells = experiment: as above; assay type: cell-based, human
Experimental: as §1

melanoma line MEL888 = experiment: Luciferase reporter promoter activity; assay type: cell-based, human
Experimental: (§2) The cells were seeded in 24-well plates with a density of 4×10^4 cells/well. After 24 hours they were transfected using Lipofectamine2000 (Invitrogen Corp., Carlsbad, Calif.) according to the conditions indicated by the manufacturer. Each treatment was carried out at least in duplicate for each cell line, incubating 0.8 μg of treatment plasmid with 0.1 μg of pRL-CMV plasmid for 5 minutes with 50 μl DMEM medium without antibiotic and simultaneously, 1 μl Lipofectamine2000 with 50 μl of the same medium. These two preparations were mixed and incubated for 20 minutes at room temperature. The medium with cell serum was removed, washed with PBS and 200 μl high glucose DMEM was added without serum and without antibiotics; subsequently, 100 μl medium containing the lipofection mixture was added and 800 μl of culture medium corresponding to each cell line, supplemented with BFS, was added 4 hours later. The cells used were kept in a stove for 46 hours at 37° C. with 5% CO2. The Dual Luciferase Reporter Assay System kit (Promega Corp., Madison, Wis.) was used for the luciferase assay. This system implies the simultaneous expression of two individual reporter enzymes in the same system, allowing for the evaluation of the activity produced by the luciferase enzymes from the Firefly glow-worm (Photinus pyralis) and the Renilla coelenterate (Renilla reniformis) in only one sequential assay (Sherf, B. A. et al., Dual Luciferase Reporter Assay: An Advanced Co-Reporter Technology Integrating Firefly and Renilla Luciferase Assays. Promega Notes Magazine: 2-9, 1996). The data were normalized in the following way:
(§3) The data are expressed as induction amount relative to the activity obtained with the pGL3-Basic control plasmid (without promoter). The pGl3-promoter plasmid (pGL3-prom, Promega Corp., Madison, Wis.) wherein the viral promoter from SV40 drives the expression of the luciferase enzyme, was used as a transfection control.
(§4) The two promoters F512 and Spdel, having similar promoter activity and as identified by the method of Example 3A, were assessed in different tumor and normal cell lines (see references in Example 1).

[1] = system: different tumor and normal cell lines; experiment: Luciferase reporter promoter activity, F512 vs Spdel; assay type: cell-based; conditions: for promoter activity across cell lines vs SPARC expression: melanoma, colon (T84, LoVo), glioma (U87), cervix (HeLa)
Experimental: as §2
(§5) The data are expressed as induction amount relative to the activity obtained with the pGL3-Basic control plasmid (without promoter). […]
as §4

[2] = system: A375N (melanoma), HeLa (cervix) and T-47D (breast) cell lines; experiment: Luciferase reporter promoter activity of SPARC promoter fragments; assay type: cell-based, human; conditions: pGL3 constructs; relative to pGL3-Basic; A375N expresses SPARC, HeLa and T-47D do not
Description: The promoters obtained according to Example 2 were subcloned in the MluI/BglII, MluI/XhoI or NheI/XhoI sites of the pGL3-Basic plasmid (Promega Corp., Madison, Wis., USA) upstream of the luciferase reporter gene. All of the clonings was confirmed by restriction profiles and by sequencing the vectors (pGEM, TOPO and/or pGL3) with the universal primers T7 (TACGACTCACTATAGGG; SEQ ID NO 27); Sp6 (ATTTAGGTGACACTATAG; SEQ ID NO 28), T3 ([…]; SEQ ID NO 29) or P2 ([…]; SEQ ID NO 30) and P3 ([…]; SEQ ID NO 31).
The presence of the luciferase reporter gene allowed for the quantification of SPARC promoter activity in the 11 fragments obtained in Example 2, by measuring the luciferase enzymatic activity. The assay was performed in three cell lines, using the (melanoma) A375N line as a model since it expresses high SPARC levels and the (cervix) HeLa and (breast) T-47D lines, not expressing SPARC, according to the teachings of Example 1 above.
as §2, §5

T84 = experiment: Luciferase reporter promoter activity; assay type: cell-based, human
Experimental: as §2, §3, §4

SB2 line = experiment: Luciferase reporter promoter activity; assay type: cell-based, human
Experimental: as §2, §3, §4

fibroblast line WI-38 VA = experiment: Luciferase reporter promoter activity; assay type: cell-based, human
Experimental: as §2, §3, §4

endothelium BAEC line = experiment: Luciferase reporter promoter activity; assay type: cell-based, Bovine
Experimental: The cells were seeded in 24-well plates with a density of 4×10^4 cells/well. After 24 hours they were transfected using Lipofectamine2000 (Invitrogen Corp., Carlsbad, Calif.) according to the conditions indicated by the manufacturer. Each treatment was carried out at least in duplicate for each cell line, incubating 0.8 μg of treatment plasmid with 0.1 μg of pRL-CMV plasmid for 5 minutes with 50 μl DMEM medium without antibiotic and simultaneously, 1 μl Lipofectamine2000 with 50 μl of the same medium. These two preparations were mixed and incubated for 20 minutes at room temperature. The medium with cell serum was removed, washed with PBS and 200 μl high glucose DMEM was added without serum and without antibiotics; subsequently, 100 μl medium containing the lipofection mixture was added and 800 μl of culture medium corresponding to each cell line, supplemented with BFS, was added 4 hours later. The cells used were kept in a stove for 46 hours at 37° C. with 5% CO2. […]
as §5, §4

Nc1nc(O)c2ncn(COC(CO)CO)c2n1 [GCV, ganciclovir]
sensitivity of cells to prodrug (BAEC cells): sensitive to the prodrug | sensitivity of cells to prodrug alone (hMEC-1 cells): sensitive to the presence of the prodrug alone

Spdel: complete SPARC promoter −1175/+71 with the 10 bp between the two GGA boxes deleted, SEQ ID NO 18
promoter activity with respect to the empty vector pGL3-Basic (melanoma line MEL888): 430 times higher | promoter activity with respect to the empty vector pGL3-Basic ([1]; average, both in tumor and normal lines): 140 times higher | promoter activity across cell lines vs SPARC expression [1]: same activity in all lines | promoter activity and specificity (luciferase) [2]: same activity than F512, in the A375N melanoma line

−1175/+71: complete human SPARC promoter, SEQ ID NO 17
promoter activity and specificity (luciferase) [2]: lower promoter activity in melanoma lines

B1: −120/+71: SPARC promoter fragment including the complete first exon, SEQ ID NO 24 (nucleic acid, listed as Homo sapiens)
DNA: GGGAGAAGGAGGAGGCCGGGGGAAGGAGGAGACAGGAGGAGGAGGGACCACGGGGTGGAGGGGAGATAGACCCAGCCCAGAGCTCTGAGTGGTTTCCTGTTGCCTGTCTCTAAACCCCTCCACATTCCCGCGGTCCTTCAGACTGCCCGGAGAGCGCGCTCTGCCTGCCGCCTGCCTGCCTGCCACTGAGG
promoter activity and specificity (luciferase) [2]: higher unspecificity

B2: F512: human SPARC promoter fragment from base pair −513 to +35, SEQ ID NO 1 (nucleic acid, listed as Homo sapiens)
DNA: GCAGCTTGTCTTGTCTGTACAGTGGTAAGTCCTGGCCTTGCCTTTGTGGCAAATACAACCCCCTTGAATTGCTTGGCCCTTCTCAGCATTGCCTAATATTAGGGAGGACTCCTGTAAAGCTCACTGGTTAGAAGATCAAGACACTTGGGCCTGGTTCTGCCCCTGGGGGCCATTGGGTAATTCCTTGCAGTCTCCAGGCCTCACTTGCCCTCTGAACAAGAAAGAGGCTGTTCTGGGTCATCCCTCCAGGCCTGTCCAGCCCTGGCACTCTGTGAGTCGGTTTAGGCAGCAGCCCCGGAACAGATGAGGCAGGCAGGGTTGGGACGTTTGGTCAGGACAGCCCACCGCAAAAAGAGGAGGAAAGAAATGAAAGACAGAGACAGCTTTGGCTATGGGAGAAGGAGGAGGCCGGGGGAAGGAGGAGACAGGAGGAGGAGGGACCACGGGGTGGAGGGGAGATAGACCCAGCCCAGAGCTCTGAGTGGTTTCCTGTTGCCTGTCTCTAAACCCCTCCACATTCCCGCGGTCCTTCAGACTGCCCGGAGAGC
modifications: DNA fragment of the SPARC human promoter.
promoter activity relative to melanoma lines (T84): half the activity observed for the melanoma lines | promoter activity relative to the activity observed in A375N (SB2 line): approximately ⅓ | promoter activity (fibroblast line WI-38 VA): active | promoter activity across cell lines vs SPARC expression [1]: lower activity in those lines with little or null SPARC expression | promoter activity and specificity (luciferase) [2]: higher specificity and higher activity in the line expressing SPARC | promoter activity (endothelium BAEC line): active
